The target in assay [1] is T1, Outer pocket mutant α7β2‐nAChR (β2[K79T,F119Q]) (Homo sapiens, UniProt P17787+P36544, F144Q/K104T).
T1 construct: expressed in transfected cells; host or cells: Xenopus laevis oocytes, cRNA injection
Nature of the assay: ACh concentration‐response curve, TEVC, outer pocket α7β2‐nAChR. Type of assay: cell-based. As to conditions: mean ± SEM of 15–19 oocytes.

For assay [2], the target named is T2, Inner pocket mutant α7β2‐nAChR (β2[S108T, V111L,W120Y]) (Homo sapiens, UniProt P17787+P36544, S133T/V136L/W145Y).
T2 construct: expressed in transfected cells; host or cells: Xenopus laevis oocytes, cRNA injection
T2 sequence (P36544 23-502): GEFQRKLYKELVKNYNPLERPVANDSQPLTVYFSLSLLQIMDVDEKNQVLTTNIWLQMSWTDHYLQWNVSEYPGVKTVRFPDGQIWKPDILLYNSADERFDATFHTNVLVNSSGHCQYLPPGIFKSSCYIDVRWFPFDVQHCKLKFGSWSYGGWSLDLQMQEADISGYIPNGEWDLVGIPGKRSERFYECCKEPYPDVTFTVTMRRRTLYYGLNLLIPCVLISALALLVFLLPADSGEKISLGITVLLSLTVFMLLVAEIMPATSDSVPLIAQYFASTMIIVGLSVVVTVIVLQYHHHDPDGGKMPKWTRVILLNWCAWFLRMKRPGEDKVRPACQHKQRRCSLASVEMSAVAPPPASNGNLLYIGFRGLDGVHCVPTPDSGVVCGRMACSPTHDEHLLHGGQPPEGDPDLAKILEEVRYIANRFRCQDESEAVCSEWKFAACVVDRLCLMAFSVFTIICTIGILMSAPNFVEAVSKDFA
T2 sequence (P17787 26-502 S133T/V136L/W145Y): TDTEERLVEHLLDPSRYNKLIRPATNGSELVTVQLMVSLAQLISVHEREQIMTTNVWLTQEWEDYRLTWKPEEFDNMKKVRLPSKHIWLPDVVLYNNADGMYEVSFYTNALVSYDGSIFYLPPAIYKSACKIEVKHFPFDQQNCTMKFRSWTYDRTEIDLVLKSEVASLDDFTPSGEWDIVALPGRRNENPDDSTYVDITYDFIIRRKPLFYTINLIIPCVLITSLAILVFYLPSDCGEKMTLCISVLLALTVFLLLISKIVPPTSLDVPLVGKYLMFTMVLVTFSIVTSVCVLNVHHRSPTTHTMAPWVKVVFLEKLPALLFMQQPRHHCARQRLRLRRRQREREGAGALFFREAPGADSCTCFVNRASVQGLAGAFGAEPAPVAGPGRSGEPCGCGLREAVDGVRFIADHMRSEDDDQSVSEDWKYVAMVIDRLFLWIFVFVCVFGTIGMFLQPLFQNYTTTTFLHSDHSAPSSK
The assay can be described thus: ACh concentration‐response curve, TEVC, inner pocket α7β2‐nAChR. To be noted: mean ± SEM of 15–19 oocytes. Type of assay: cell-based.

The target in assay [3] is T3, human α7‐only‐nAChR (Homo sapiens, UniProt P36544).
T3 construct: expressed in transfected cells; host or cells: Xenopus laevis oocytes, cRNA injection
T3 sequence (P36544 23-502 limits assumed): as the sequence (P36544 23-502) above
Nature of the assay: cell-based. To be noted: SEM; for koff: read-out: k off α7‐only; for kon: read-out: k on α7‐only.

Assay [4] deals with T4, human α7β2‐nAChR (Homo sapiens, UniProt P17787+P36544).
T4 construct: expressed in transfected cells; host or cells: Xenopus laevis oocytes, cRNA injection
T4 sequence (P36544 23-502 limits assumed): as the sequence (P36544 23-502) above
T4 sequence (P17787 26-502 limits assumed): as the sequence (P17787 26-502 S133T/V136L/W145Y) above, with T108S, L111V, Y120W counted along it
The assay can be described thus: cell-based.

Assay [5] addresses T5, α3β4‐nAChR (Homo sapiens, UniProt P30926+P32297).
T5 construct: expressed in transfected cells; host or cells: Xenopus laevis oocytes, cRNA injection
It is filed as cell-based.

The target of assay [6] is T6, Inner pocket mutant α7β2‐nAChR (β2[S108T, V111L,W120Y] at both α7(+)/(−)β2 subunit interfaces) (Homo sapiens, UniProt P17787+P36544, S133T/V136L/W145Y).
T6 construct: expressed in transfected cells; host or cells: Xenopus laevis oocytes, cRNA injection
T6 sequence (P17787 26-502 S133T/V136L/W145Y): as the sequence (P17787 26-502 S133T/V136L/W145Y) above
T6 sequence (P36544 23-502): as the sequence (P36544 23-502) above
Nature of the assay: cell-based. As to conditions: SEM; for koff: read-out: k off, “Inner pocket” α7β2‐nAChR; for kon: read-out: k on, “Inner pocket” α7β2‐nAChR.

In assay [7] the target is T7, Outer pocket mutant α7β2‐nAChR (β2[K79T,F119Q] at both α7(+)/(−)β2 subunit interfaces) (Homo sapiens, UniProt P17787+P36544, F144Q/K104T).
T7 construct: expressed in transfected cells; host or cells: Xenopus laevis oocytes, cRNA injection
T7 sequence (P17787 26-502 K104T/F144Q): as the sequence (P17787 26-502 S133T/V136L/W145Y) above, with K79T, T108S, L111V, F119Q, Y120W counted along it
T7 sequence (P36544 23-502): as the sequence (P36544 23-502) above
Nature of the assay: cell-based. As to conditions: SEM; for koff: read-out: k off, “Outer pocket” α7β2‐nAChR; for kon: read-out: k on, “Outer pocket” α7β2‐nAChR.

Assay [8] concerns the target T8, α9α10‐nAChR (Homo sapiens, UniProt Q9GZZ6+Q9UGM1).
T8 construct: expressed in transfected cells; host or cells: Xenopus laevis oocytes, cRNA injection
Nature of the assay: cell-based.

Assay [9] addresses T9, α3β2‐nAChR (Homo sapiens, UniProt P17787+P32297).
T9 construct: expressed in transfected cells; host or cells: Xenopus laevis oocytes, cRNA injection
It is filed as cell-based.

In assay [10] the target is T10, α6/3β2β3‐nAChR (Homo sapiens, UniProt P17787+P32297+Q05901+Q15825).
T10 construct: expressed in transfected cells; host or cells: Xenopus laevis oocytes, cRNA injection
T10 sequence (P17787 26-502): as the sequence (P17787 26-502 S133T/V136L/W145Y) above, with T108S, L111V, Y120W counted along it
T10 sequence (Q15825+P32297 fused with the stated changes): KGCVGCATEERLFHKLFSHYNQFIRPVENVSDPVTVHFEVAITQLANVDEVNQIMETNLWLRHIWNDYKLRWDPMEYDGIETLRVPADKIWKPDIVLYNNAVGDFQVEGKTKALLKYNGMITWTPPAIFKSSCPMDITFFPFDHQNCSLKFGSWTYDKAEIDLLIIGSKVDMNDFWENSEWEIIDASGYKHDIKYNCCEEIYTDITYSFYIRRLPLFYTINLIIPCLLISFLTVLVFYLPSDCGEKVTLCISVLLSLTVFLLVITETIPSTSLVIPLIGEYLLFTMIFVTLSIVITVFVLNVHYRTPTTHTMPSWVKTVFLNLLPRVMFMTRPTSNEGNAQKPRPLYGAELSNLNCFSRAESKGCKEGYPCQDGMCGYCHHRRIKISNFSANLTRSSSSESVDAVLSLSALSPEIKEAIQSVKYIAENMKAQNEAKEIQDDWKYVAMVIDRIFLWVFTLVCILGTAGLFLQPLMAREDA
T10 sequence (Q05901 25-458): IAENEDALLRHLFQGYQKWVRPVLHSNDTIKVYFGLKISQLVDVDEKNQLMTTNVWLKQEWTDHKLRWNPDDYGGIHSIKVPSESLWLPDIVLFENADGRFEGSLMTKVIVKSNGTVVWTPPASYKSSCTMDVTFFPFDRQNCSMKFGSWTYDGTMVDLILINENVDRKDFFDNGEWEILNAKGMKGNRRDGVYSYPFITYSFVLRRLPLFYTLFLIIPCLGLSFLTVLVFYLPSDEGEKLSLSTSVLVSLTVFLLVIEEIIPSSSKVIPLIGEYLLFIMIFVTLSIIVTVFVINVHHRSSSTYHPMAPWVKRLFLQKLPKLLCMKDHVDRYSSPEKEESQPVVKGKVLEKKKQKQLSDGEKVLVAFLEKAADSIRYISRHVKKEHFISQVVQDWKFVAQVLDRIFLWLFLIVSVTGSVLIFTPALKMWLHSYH
It is filed as cell-based.

Setting [11] is: ACh 10 μM – 10 mM, half‐log steps, 3 s, 60 s apart.
Setting [12] is: read-out: k off, Unaltered α7β2‐nAChR, SEM.
Where [13] appears, read: read-out: k on, Unaltered α7β2‐nAChR, SEM.

Read-outs that look alike come from different tables or passages of the source.

T1 sequence (P36544 23-502): as the sequence (P36544 23-502) above
T1 sequence (P17787 26-502 K104T/F144Q): as the sequence (P17787 26-502 S133T/V136L/W145Y) above, with K79T, T108S, L111V, F119Q, Y120W counted along it
T9 sequence (P17787 26-502): as the sequence (P17787 26-502 S133T/V136L/W145Y) above, with T108S, L111V, Y120W counted along it
T9 sequence (P32297 32-505): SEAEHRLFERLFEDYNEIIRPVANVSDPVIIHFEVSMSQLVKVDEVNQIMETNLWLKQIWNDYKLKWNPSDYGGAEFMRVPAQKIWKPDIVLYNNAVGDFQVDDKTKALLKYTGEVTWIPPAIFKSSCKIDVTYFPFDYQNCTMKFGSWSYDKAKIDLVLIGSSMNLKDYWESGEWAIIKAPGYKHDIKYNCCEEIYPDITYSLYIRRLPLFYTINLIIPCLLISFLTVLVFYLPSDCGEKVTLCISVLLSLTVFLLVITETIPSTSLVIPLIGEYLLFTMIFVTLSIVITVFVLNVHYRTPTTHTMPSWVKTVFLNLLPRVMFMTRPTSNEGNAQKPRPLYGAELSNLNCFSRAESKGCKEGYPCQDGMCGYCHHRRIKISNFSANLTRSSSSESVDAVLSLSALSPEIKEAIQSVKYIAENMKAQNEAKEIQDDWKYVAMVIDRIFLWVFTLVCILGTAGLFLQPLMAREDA
T8 sequence (Q9UGM1 26-479 limits assumed): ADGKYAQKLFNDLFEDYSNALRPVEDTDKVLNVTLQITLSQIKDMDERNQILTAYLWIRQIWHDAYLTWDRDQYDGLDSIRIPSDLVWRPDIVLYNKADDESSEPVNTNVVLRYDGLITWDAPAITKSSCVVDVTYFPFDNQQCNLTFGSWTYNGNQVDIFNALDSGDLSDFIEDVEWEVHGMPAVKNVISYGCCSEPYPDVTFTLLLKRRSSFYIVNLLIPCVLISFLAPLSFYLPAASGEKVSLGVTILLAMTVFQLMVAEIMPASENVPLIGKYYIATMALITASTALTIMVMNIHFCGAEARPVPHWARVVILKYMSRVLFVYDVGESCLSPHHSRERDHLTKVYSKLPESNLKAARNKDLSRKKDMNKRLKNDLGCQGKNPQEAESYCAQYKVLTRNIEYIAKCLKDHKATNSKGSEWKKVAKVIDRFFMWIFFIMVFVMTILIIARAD
T8 sequence (Q9GZZ6 25-450): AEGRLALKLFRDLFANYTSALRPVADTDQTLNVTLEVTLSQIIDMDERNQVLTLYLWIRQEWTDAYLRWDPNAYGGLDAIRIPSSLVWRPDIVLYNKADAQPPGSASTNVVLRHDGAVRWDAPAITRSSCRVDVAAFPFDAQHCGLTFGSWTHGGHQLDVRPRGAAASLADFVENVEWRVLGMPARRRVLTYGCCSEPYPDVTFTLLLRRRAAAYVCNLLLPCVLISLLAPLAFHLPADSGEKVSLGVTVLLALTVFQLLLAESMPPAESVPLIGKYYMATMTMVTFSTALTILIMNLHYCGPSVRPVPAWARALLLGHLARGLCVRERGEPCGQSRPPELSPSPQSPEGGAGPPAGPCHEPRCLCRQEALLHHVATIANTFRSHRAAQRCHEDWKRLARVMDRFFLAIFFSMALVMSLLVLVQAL
T5 sequence (P30926 22-498): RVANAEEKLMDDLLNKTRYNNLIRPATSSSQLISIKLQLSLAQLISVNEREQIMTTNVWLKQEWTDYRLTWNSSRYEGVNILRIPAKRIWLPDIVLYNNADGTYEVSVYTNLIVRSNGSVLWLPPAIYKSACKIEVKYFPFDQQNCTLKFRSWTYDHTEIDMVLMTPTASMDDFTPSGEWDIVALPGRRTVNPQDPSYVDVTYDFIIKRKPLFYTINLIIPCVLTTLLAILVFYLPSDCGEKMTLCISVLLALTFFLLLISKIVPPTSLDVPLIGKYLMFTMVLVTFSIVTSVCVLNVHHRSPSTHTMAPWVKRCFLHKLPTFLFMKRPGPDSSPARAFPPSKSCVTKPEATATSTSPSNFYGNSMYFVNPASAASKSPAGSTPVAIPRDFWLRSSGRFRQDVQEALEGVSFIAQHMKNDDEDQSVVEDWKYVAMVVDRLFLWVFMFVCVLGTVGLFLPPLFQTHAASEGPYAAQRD
T5 sequence (P32297 32-505): as the sequence (P32297 32-505) above

Regarding `CC(=O)OCC[N+](C)(C)C` [ACh, acetylcholine], the “Imax, maximum function induced by ACh, outer pocket α7β2‐nAChR” value in assay [1] (setting [11]) was 1401 ± 137 nA. The “hillslope (nH), outer pocket α7β2‐nAChR” value in assay [1] (logistic fit per oocyte) amounted to 1.17 ± 0.12. Besides, the “Imax, maximum function induced by ACh, inner pocket α7β2‐nAChR” value in assay [2] (setting [11]) stood at 1539 ± 193 nA. For the same compound, the “hillslope (nH), inner pocket α7β2‐nAChR” value in assay [2] (logistic fit per oocyte) is on record as 0.93 ± 0.06.

For the compound `CC(C)C[C@@H]1NC(=O)[C@H](Cc2ccccc2)NC(=O)[C@@H]2CSSC[C@H](NC(=O)CN)C(=O)N[C@@H](CSSC[C@@H](C(N)=O)NC(=O)[C@H](Cc3ccc(O)cc3)NC(=O)[C@H](CCC(=O)O)NC(=O)[C@@H]3CCCN3C(=O)[C@H](CC(N)=O)NC(=O)[C@H](CC(N)=O)NC1=O)C(=O)N[C@@H](CO)C(=O)N[C@@H](Cc1c[nH]cn1)C(=O)N1CCC[C@H]1C(=O)N1CCC[C@H]1C(=O)N2` [[D14E]], the Kd (commonly the equilibrium constant for the complex coming apart) turned out to be 2 ± 0.6 nM in assay [3] and 1.4 ± 0.3 nM in assay [4] (K d α7β2, SEM). The koff in assay [3] was 0.000111 s⁻¹; in assay [4] (read-out: k off α7β2, SEM), 6e-05 s⁻¹. Further, the kon is 57500 M⁻¹ s⁻¹ in assay [3] and 49500 M⁻¹ s⁻¹ in assay [4] (read-out: k on α7β2, SEM).

In the case of `CC(C)C[C@@H]1NC(=O)[C@H](CC(C)C)NC(=O)[C@@H]2CSSC[C@H](NC(=O)CN)C(=O)N[C@@H](CSSC[C@@H](C(N)=O)NC(=O)[C@H](Cc3ccc(O)cc3)NC(=O)[C@H](CC(=O)O)NC(=O)[C@@H]3CCCN3C(=O)[C@H](CC(N)=O)NC(=O)[C@H](CC(N)=O)NC1=O)C(=O)N[C@@H](CO)C(=O)N[C@@H](Cc1c[nH]cn1)C(=O)N1CCC[C@H]1C(=O)N1CCC[C@H]1C(=O)N2` [[F9L]], in [5], the “block of ACh‐induced function, α3β4‐nAChR” value is more than 90%. Moreover, the Kd in assay [3] stood at 20 ± 3 nM; in assay [4] (K d α7β2, SEM) it was 15 ± 2 nM. In addition, the koff in assay [3] was 0.000637 s⁻¹; in [4] (read-out: k off α7β2, SEM) it was 0.000292 s⁻¹. For the same compound, the kon was 32800 M⁻¹ s⁻¹ in [3] and 20500 M⁻¹ s⁻¹ in assay [4] (read-out: k on α7β2, SEM).

Take `NCC(=O)N[C@H]1CSSC[C@@H]2NC(=O)[C@@H]3CCCN3C(=O)[C@@H]3CCCN3C(=O)[C@H](Cc3c[nH]cn3)NC(=O)[C@H](CO)NC(=O)[C@H](CSSC[C@@H](C(N)=O)NC(=O)[C@H](Cc3ccc(O)cc3)NC(=O)[C@H](CC(=O)O)NC(=O)[C@@H]3CCCN3C(=O)[C@H](CC(N)=O)NC(=O)[C@H](CC(N)=O)NC(=O)[C@H](Cc3ccc(O)cc3)NC(=O)[C@H](Cc3ccccc3)NC2=O)NC1=O` [[L10Y]]: the Kd in [6] is 24 ± 3 nM; in [7], 28 ± 4 nM; in assay [3], 671 ± 136 nM; in assay [4] (K d α7β2) it was 1 to 2 nM; in assay [4] (K d α7β2, SEM), 12 ± 3 nM; in assay [4] (K d, Unaltered α7β2‐nAChR, SEM) it was 20 ± 4 nM. In addition, the koff was 0.000537 s⁻¹ in assay [6]; 0.00064 s⁻¹ in assay [7]; 0.0044 s⁻¹ in assay [3]; 0.000462 s⁻¹ in [4] (read-out: k off α7β2, SEM); 0.000508 s⁻¹ in assay [4] (setting [12]). Also, the kon in [6] was 21700 M⁻¹ s⁻¹; in assay [7], 24000 M⁻¹ s⁻¹; in assay [3], 6670 M⁻¹ s⁻¹; in [4] (read-out: k on α7β2, SEM), 50200 M⁻¹ s⁻¹; in assay [4] (setting [13]), 30700 M⁻¹ s⁻¹. Also, the IC50 (as a rule, the concentration that gives 50% inhibition) in assay [8] was more than 300 nM.

For `CC(C)C[C@@H]1NC(=O)[C@H](Cc2ccccc2)NC(=O)[C@@H]2CSSC[C@H](NC(=O)CN)C(=O)N[C@@H](CSSC[C@@H](C(N)=O)NC(=O)[C@H](Cc3ccc(O)cc3)NC(=O)[C@H](CC(=O)O)NC(=O)[C@@H]3CCCN3C(=O)[C@H](Cc3c[nH]cn3)NC(=O)[C@H](CC(N)=O)NC1=O)C(=O)N[C@@H](CO)C(=O)N[C@@H](Cc1c[nH]cn1)C(=O)N1CCC[C@H]1C(=O)N1CCC[C@H]1C(=O)N2` [[N12H]], the Kd in assay [3] turned out to be 81 ± 19 nM; in assay [4] (K d α7β2, SEM) it was 13 ± 2 nM. Further, the koff in assay [3] is 0.0011 s⁻¹; in assay [4] (read-out: k off α7β2, SEM), 0.000308 s⁻¹. Further, the kon in [3] was 18300 M⁻¹ s⁻¹; in assay [4] (read-out: k on α7β2, SEM), 24500 M⁻¹ s⁻¹.

With `CC(C)C[C@@H]1NC(=O)[C@H](Cc2ccccc2)NC(=O)[C@@H]2CSSC[C@H](NC(=O)CN)C(=O)N[C@@H](CSSC[C@@H](C(N)=O)NC(=O)[C@H](Cc3ccc(O)cc3)NC(=O)[C@H](CC(=O)O)NC(=O)[C@@H]3CCCN3C(=O)[C@H](CC(N)=O)NC(=O)[C@H](CC(N)=O)NC1=O)C(=O)N[C@@H](CCCNC(=N)N)C(=O)N[C@@H](Cc1c[nH]cn1)C(=O)N1CCC[C@H]1C(=O)N1CCC[C@H]1C(=O)N2` [[S4R]], the Kd was 5.31 ± 1.04 nM in [6]; 6.74 ± 2.67 nM in [7]; 15 ± 6 nM in assay [3]; 0.83 ± 0.05 nM in assay [4] (K d α7β2, SEM); 1.9 ± 0.21 nM in assay [4] (K d, Unaltered α7β2‐nAChR, SEM). The koff in assay [6] is 0.000232 s⁻¹; in assay [7], 0.000255 s⁻¹; in [3], 0.000597 s⁻¹; in [4] (read-out: k off α7β2, SEM), 9.33e-05 s⁻¹; in [4] (setting [12]), 0.000124 s⁻¹. Besides, the kon is 45500 M⁻¹ s⁻¹ in assay [6]; 64300 M⁻¹ s⁻¹ in assay [7]; 56700 M⁻¹ s⁻¹ in assay [3]; 112000 M⁻¹ s⁻¹ in [4] (read-out: k on α7β2, SEM); 67500 M⁻¹ s⁻¹ in assay [4] (setting [13]).

As to `CC(C)C[C@@H]1NC(=O)[C@H](Cc2ccccc2)NC(=O)[C@@H]2CSSC[C@H](NC(=O)CN)C(=O)N[C@@H](CSSC[C@@H](C(N)=O)NC(=O)[C@H](CC(=O)O)NC(=O)[C@H](CC(=O)O)NC(=O)[C@@H]3CCCN3C(=O)[C@H](CC(N)=O)NC(=O)[C@H](CC(N)=O)NC1=O)C(=O)N[C@@H](CO)C(=O)N[C@@H](Cc1c[nH]cn1)C(=O)N1CCC[C@H]1C(=O)N1CCC[C@H]1C(=O)N2` [[Y15D]], the “block of ACh‐induced function, α3β2‐nAChR” value in assay [9] is on record as “≈ 50%”. In addition, in [10], the “block of ACh‐induced function, α6/3β2β3‐nAChR” value is listed as “≈ 35%”. Further, the Kd worked out at 27 ± 3 nM in [3] and 9.9 ± 2.1 nM in assay [4] (K d α7β2, SEM). Moreover, the koff in assay [3] was 0.00112 s⁻¹; in assay [4] (read-out: k off α7β2, SEM) it was 0.000298 s⁻¹. For the same compound, the kon is 54800 M⁻¹ s⁻¹ in assay [3] and 43300 M⁻¹ s⁻¹ in assay [4] (read-out: k on α7β2, SEM).

The record behind these values is paper PMC10782225 (The FASEB Journal, 2023).
